Measurements reported in patent US20210322443A1 (MAPREG, priority 2015, published 2021).

How the values were obtained:
Histaminergic H1 = Histaminergic H1 (Homo sapiens, UniProt P35367); assay: CNS receptor binding assay; details: read-out: % Inhibition of control specific binding
Dopaminergic D1 = Dopaminergic D1 (Homo sapiens, UniProt P21728); assay: CNS receptor binding assay; details: read-out: % Inhibition of control specific binding
[1] = target: T1, human progesterone receptor(PR) (Homo sapiens, UniProt P06401); assay: Progesterone receptor antagonist transactivation test (progesterone 1 nM) in transfected HEK293T cells; format: cell-based; details: with progesterone 1 nM, increasing amounts, FIG. 2
T1 construct: expressed in transfected cells; host or cells: HEK293T
T1 sequence (P06401 1-933): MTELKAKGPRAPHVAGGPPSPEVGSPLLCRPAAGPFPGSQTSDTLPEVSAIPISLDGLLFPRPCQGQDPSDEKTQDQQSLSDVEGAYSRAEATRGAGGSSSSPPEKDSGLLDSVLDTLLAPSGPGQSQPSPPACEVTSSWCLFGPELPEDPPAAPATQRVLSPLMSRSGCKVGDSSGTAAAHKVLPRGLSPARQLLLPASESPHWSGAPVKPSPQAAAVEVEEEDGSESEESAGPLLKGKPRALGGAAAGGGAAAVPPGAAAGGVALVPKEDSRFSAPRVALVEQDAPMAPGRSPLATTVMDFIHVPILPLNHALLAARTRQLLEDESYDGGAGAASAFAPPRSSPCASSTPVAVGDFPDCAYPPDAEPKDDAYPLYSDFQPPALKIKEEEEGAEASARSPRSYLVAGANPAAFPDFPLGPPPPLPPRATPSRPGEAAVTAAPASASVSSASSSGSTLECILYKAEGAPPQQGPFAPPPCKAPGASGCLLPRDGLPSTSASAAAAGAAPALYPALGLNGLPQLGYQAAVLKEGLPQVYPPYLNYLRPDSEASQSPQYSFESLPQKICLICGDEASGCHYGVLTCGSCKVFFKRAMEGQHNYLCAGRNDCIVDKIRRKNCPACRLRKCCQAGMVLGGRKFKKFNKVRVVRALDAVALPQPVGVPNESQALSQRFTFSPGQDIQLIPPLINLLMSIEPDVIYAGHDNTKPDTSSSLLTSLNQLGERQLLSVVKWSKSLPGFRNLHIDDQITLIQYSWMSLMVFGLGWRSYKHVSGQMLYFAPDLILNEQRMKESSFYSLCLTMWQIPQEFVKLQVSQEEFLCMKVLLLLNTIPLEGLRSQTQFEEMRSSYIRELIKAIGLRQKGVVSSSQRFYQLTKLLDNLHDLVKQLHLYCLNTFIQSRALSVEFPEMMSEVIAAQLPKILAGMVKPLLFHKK
Procedure: (§1) The main experimental setting used is the following: HEK293T cells were transiently transfected, using calcium phosphate precipitation technology, with expression vectors pSG5hPR (which permits expression of human progesterone receptor(PR)), pFC31-luc (contains the luciferase gene under the control of the MMTV promoter, which is in turn activated by binding of a progestin to progesterone receptor) and pcbetagal (which permits expression of betagalactosidase), and cultured during 24 hours with increasing amounts of various compositions: • 1. […] Test of progesterone receptor […] activity: transfected cells were cultured with progesterone (1 nM) and increasing amounts of RU486 (a well-known progesterone receptor antagonist) or 3-methoxy-pregnenolone. • With this setting, a compound with progesterone receptor antagonist activity competes with progesterone for the occupation of progesterone receptor and results in a progressive loss of transactivation activity when the amount of this compound is increased compared to progesterone.

Serotoninergic 5-HT2C = Serotoninergic 5-HT2C (Homo sapiens, UniProt P28335); assay: CNS receptor binding assay; details: read-out: % Inhibition of control specific binding
Oppioid δ2 = Oppioid δ2 (Homo sapiens, UniProt P41143); assay: CNS receptor binding assay; details: [3H] DADLE, Human recombinant (CHO cells), read-out: % Inhibition of control specific binding
Serotoninergic 5-HT7 = Serotoninergic 5-HT7 (Homo sapiens, UniProt P34969); assay: CNS receptor binding assay; details: read-out: % Inhibition of control specific binding
[2] = target: Muscarinic (Cholinergic) M4 (Homo sapiens, UniProt P08173); assay: CNS receptor binding assay; details: [3H] 4-DAMP, Human recombinant (CHO cells), read-out: % Inhibition of control specific binding
[3] = target: Serotoninergic Transporter (Homo sapiens, UniProt P31645); assay: CNS receptor binding assay; details: [3H] imipramine, Human recombinant (CHO cells), read-out: % Inhibition of control specific binding
Noradrenergic α2 = assay: CNS receptor binding assay; details: 10 μM; [3H] RX 821002; rat cerebral cortex
Serotoninergic 5-HT6 = Serotoninergic 5-HT6 (Homo sapiens, UniProt P50406); assay: CNS receptor binding assay; details: read-out: % Inhibition of control specific binding
NMDA PCP site = assay: CNS receptor binding assay; details: 10 μM; [3H] TCP; rat cerebral cortex
MAP2 = MAP2 (Homo sapiens, UniProt P11137); assay: Binding by displacement of PREG-3H
Serotoninergic 5-HT2A = Serotoninergic 5-HT2A (Homo sapiens, UniProt P28223); assay: CNS receptor binding assay; details: [3H] ketanserin, Human recombinant (HEK-293 cells), read-out: % Inhibition of control specific binding
[4] = target: T1, human progesterone receptor(PR); assay: Progesterone receptor agonist transactivation (MMTV-luciferase) in transfected HEK293T cells; format: cell-based; details: 24 hours, increasing amounts, FIG. 1
Procedure: as §1

Serotoninergic 5-HT2B = Serotoninergic 5-HT2B (Homo sapiens, UniProt P41595); assay: CNS receptor binding assay; details: read-out: % Inhibition of control specific binding
Dopaminergic D4.4 = Dopaminergic D4.4 (Homo sapiens, UniProt P21917); assay: CNS receptor binding assay; details: read-out: % Inhibition of control specific binding
Serotoninergic 5-HT3 = Serotoninergic 5-HT3 (Homo sapiens, UniProt P46098); assay: CNS receptor binding assay; details: read-out: % Inhibition of control specific binding
Oppioid κ = Oppioid κ (Rattus norvegicus, UniProt P34975); assay: CNS receptor binding assay; details: [3H] U 69593, rat recombinant (CHO cells), read-out: % Inhibition of control specific binding
Noradrenergic α1 = assay: CNS receptor binding assay; details: 10 μM; [3H] prazosin; rat cerebral cortex
[5] = target: Muscarinic (Cholinergic) M5 (Homo sapiens, UniProt P08912); assay: CNS receptor binding assay; details: [3H] 4-DAMP, Human recombinant (CHO cells), read-out: % Inhibition of control specific binding

Chain of Serotoninergic 5-HT2A (P28223 whole entry): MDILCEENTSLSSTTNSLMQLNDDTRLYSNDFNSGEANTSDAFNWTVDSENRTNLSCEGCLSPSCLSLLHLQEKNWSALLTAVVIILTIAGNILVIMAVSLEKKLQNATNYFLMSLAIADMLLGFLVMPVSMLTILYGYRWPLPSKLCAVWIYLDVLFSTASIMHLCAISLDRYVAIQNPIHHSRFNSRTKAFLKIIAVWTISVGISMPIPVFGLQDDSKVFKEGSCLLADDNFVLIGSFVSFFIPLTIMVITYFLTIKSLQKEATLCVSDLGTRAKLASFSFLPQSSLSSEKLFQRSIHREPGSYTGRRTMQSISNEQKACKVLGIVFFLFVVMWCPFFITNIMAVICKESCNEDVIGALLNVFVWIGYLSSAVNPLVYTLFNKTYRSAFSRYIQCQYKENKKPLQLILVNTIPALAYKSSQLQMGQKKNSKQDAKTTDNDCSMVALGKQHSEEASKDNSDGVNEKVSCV
Chain of Oppioid κ (P34975 whole entry): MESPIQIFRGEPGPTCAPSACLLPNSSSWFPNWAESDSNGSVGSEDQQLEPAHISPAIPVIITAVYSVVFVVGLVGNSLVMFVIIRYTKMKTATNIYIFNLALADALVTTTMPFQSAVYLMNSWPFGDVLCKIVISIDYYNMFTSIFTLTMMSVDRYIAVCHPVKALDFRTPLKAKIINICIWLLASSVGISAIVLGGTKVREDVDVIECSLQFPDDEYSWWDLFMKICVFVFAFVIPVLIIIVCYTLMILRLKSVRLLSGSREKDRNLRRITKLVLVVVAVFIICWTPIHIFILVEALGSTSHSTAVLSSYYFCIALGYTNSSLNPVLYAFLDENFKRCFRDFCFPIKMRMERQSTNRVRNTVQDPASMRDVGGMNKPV
Chain of Serotoninergic 5-HT6 (P50406 whole entry): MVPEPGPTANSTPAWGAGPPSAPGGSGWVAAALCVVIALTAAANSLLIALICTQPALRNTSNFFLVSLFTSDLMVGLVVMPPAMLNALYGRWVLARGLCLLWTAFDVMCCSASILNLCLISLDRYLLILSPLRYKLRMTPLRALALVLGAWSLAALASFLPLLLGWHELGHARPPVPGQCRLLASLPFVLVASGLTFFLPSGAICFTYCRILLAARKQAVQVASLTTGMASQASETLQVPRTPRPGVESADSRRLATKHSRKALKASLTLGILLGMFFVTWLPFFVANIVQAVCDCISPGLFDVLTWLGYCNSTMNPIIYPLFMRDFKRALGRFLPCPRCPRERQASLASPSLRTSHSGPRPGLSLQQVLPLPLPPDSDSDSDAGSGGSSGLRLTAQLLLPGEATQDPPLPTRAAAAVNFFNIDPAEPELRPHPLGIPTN
Chain of Serotoninergic Transporter (P31645 whole entry): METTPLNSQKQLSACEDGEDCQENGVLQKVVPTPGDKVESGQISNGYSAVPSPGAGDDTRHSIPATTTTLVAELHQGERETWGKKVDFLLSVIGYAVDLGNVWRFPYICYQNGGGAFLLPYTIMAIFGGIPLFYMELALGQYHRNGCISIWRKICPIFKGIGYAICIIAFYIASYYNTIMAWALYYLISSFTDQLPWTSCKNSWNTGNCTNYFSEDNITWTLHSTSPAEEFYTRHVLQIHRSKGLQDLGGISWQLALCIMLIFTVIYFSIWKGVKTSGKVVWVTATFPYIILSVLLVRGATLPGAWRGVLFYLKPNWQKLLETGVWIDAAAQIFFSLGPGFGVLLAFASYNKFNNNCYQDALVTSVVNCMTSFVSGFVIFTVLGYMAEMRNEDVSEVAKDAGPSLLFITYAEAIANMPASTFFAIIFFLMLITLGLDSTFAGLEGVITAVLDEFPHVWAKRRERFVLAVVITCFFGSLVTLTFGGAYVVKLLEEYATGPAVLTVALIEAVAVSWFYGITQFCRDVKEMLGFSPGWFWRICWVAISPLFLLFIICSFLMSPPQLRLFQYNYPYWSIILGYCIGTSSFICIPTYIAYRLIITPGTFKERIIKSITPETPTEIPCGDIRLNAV
Chain of MAP2 (P11137 whole entry): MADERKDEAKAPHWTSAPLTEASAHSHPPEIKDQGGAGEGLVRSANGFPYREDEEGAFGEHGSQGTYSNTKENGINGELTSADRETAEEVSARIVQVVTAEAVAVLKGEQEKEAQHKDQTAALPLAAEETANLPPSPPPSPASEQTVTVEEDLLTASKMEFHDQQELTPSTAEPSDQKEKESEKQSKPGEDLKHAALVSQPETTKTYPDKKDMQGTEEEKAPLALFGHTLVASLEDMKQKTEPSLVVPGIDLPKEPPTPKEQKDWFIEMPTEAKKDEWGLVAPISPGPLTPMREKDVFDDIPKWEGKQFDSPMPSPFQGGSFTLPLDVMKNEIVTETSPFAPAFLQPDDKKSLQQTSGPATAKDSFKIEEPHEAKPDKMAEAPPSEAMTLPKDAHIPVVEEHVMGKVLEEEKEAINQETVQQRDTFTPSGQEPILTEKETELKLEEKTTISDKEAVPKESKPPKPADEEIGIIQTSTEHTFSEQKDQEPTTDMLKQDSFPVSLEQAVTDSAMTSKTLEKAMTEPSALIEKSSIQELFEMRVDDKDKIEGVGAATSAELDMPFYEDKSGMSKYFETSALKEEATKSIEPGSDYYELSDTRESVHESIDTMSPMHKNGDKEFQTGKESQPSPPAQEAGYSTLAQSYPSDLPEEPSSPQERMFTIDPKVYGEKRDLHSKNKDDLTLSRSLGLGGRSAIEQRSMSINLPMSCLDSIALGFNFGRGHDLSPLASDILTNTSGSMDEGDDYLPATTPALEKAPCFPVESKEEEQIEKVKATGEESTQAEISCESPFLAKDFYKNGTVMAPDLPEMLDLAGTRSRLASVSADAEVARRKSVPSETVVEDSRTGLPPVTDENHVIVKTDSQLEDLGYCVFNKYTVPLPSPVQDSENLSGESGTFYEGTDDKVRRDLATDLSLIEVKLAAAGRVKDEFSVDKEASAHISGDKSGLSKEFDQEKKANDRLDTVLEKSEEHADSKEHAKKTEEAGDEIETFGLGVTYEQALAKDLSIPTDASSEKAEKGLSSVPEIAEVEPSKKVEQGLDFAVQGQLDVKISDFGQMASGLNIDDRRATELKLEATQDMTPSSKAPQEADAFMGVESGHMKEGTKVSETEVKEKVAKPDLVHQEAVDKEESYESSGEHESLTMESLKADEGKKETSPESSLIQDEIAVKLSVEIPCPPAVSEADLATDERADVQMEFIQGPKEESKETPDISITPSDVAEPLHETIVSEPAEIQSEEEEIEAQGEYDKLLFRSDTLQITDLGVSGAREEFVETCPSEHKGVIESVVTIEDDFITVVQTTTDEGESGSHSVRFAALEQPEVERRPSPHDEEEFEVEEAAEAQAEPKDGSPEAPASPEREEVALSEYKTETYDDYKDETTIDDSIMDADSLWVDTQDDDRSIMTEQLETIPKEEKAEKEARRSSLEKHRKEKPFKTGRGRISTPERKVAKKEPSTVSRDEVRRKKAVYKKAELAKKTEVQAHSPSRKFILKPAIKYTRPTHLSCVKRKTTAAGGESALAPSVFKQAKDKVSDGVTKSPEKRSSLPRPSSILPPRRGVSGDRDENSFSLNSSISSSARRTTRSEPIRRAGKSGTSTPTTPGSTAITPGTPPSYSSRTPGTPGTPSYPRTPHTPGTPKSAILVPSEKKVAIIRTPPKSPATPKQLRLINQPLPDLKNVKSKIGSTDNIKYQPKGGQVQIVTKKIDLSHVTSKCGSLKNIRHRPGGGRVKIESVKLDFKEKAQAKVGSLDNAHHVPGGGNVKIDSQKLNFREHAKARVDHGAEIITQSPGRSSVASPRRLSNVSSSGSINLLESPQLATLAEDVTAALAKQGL
Chain of Dopaminergic D1 (P21728 whole entry): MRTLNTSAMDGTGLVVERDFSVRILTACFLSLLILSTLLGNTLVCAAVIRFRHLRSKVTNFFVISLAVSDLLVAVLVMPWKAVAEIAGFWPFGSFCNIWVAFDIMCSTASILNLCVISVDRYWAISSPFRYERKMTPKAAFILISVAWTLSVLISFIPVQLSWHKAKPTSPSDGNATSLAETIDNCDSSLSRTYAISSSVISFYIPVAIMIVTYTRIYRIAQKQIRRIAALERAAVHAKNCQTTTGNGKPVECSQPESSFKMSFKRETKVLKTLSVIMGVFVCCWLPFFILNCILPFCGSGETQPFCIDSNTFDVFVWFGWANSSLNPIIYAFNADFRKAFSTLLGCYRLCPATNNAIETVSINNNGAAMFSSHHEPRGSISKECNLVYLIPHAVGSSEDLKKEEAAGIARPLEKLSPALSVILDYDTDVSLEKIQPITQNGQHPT
Chain of Dopaminergic D4.4 (P21917 whole entry): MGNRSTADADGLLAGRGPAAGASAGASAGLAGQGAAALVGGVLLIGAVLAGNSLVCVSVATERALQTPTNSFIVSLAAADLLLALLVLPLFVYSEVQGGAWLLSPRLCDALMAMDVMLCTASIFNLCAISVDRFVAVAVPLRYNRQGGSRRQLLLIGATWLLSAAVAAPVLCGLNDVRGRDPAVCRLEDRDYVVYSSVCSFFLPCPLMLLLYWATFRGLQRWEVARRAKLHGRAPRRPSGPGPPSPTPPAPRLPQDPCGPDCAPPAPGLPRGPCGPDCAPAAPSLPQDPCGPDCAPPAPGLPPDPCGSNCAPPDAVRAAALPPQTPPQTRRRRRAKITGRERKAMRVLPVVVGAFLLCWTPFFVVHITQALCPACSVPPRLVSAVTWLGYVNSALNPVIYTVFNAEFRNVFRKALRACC
Chain of Oppioid δ2 (P41143 whole entry): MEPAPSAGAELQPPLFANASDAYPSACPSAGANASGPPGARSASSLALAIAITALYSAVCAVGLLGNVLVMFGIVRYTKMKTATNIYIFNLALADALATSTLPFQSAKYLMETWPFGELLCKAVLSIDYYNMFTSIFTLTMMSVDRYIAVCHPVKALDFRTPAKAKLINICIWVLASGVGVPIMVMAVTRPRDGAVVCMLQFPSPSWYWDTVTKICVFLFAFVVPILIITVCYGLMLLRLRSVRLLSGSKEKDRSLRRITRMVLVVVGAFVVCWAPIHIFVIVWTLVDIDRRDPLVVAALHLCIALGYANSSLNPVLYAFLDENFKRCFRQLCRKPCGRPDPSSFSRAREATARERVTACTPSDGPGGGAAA

CO[C@H]1CC[C@@]2(C)C(=CC[C@H]3[C@@H]4CC[C@H](C(C)=O)[C@@]4(C)CC[C@@H]32)C1 [MAP4343, 3β-methoxy-pregna-5-ene-20-one]
inhibition at 10 µM (Histaminergic H1): 9%
inhibition at 10 µM (Dopaminergic D1): 2%
progesterone receptor antagonist activity [1]: weak progesterone receptor antagonist
inhibition at 10 µM (Serotoninergic 5-HT2C): 7%
inhibition at 10 µM (Oppioid δ2): -3%
inhibition at 10 µM (Serotoninergic 5-HT7): -11%
inhibition at 10 µM [2]: 20%
inhibition at 10 µM [3]: 3%
% Inhibition of control specific binding (Noradrenergic α2): 7%
inhibition at 10 µM (Serotoninergic 5-HT6): 12%
% Inhibition of control specific binding (NMDA PCP site): −10%
Affinity (index of binding, percent of PREG) (MAP2): 100% of PREG
inhibition at 10 µM (Serotoninergic 5-HT2A): 1%
progesterone receptor agonist activity (transactivation, luciferase expression) [4]: does not have progesterone receptor agonist activity
inhibition at 10 µM (Serotoninergic 5-HT2B): -4%
inhibition at 10 µM (Dopaminergic D4.4): 6%
inhibition at 10 µM (Serotoninergic 5-HT3): 10%
inhibition at 10 µM (Oppioid κ): 19%
% Inhibition of control specific binding (Noradrenergic α1): 4%
inhibition at 10 µM [5]: 12%
